Laboratory results from US7531570B2, “Treatment of diseases using ICE inhibitors” (Vertex Pharmaceuticals Incorporated, priority 2004, dated 2009).

Experiments:
[1] = system: LPS-stimulated IL-18 release from PBMCs of FCAS patients; experiment: LPS-stimulated IL-18 release from PBMCs of patients with FCAS; format: cell-based, human
Source text: (§1) Inhibition by Compound 7 of LPS-Stimulated IL-1β and IL-18 Release from PBMCs of Patients with FCAS Compared with Healthy Controls.
(§2) FCAS patients from 3 families were studied along with healthy controls. The FCAS patients expressed 3 different CIAS1 gene mutations. […] (Neven B, Callebaut I, Prieur A M, Feldmann J, Bodemer C, Lepore L, Derfalvi B, Benjaponpitak S, Vesely R, Sauvain M J, Oertle S, Allen R, Morgan G, Borkhardt A, Hill C, Gardner-Medwin J. Fischer A, de Saint Basile G. Molecular basis of the spectral expression of CIAS1 mutations associated with phagocytic cell-mediated autoinflammatory disorders CINCA/NOMID, MWS, and FCU. Blood. 2004; 103(7): 2809-15).
(§3) Whole blood samples were collected from patients with FCAS and from healthy volunteer controls and cultured in vitro. The production of IL-1β was evaluated under normal, unstimulated conditions and in the presence of lipopolysaccharide at a range of concentrations from 10-10,000 ng/mL. Compound 7 was added to the cultures at concentrations of 30-30,000 nM to observe its ability to inhibit the production of IL-1β and IL-18 by cells from patients with FCAS or healthy volunteers. FIG. 1 illustrates the results of these experiments.
FIG. 1C illustrates the release of IL-18 by PBMCs from FCAS patients or control subjects after 24 hrs exposure to LPS in the absence or presence of 10 μM compound 7. […]

[2] = system: LPS-stimulated IL-1β release from PBMCs from MWS patients; experiment: LPS-stimulated IL-1β release from PBMCs from MWS patients; format: cell-based, human; conditions: PBMCs from 4 MWS patients, 10 ng/ml LPS, compound 0.03-10 μM, 24 hour, ELISA, FIG. 2
Protocol: Inhibition by Compound 7 of LPS-Stimulated IL-1β Release from PBMCs from 4 MWS Patients Incubated with 10 ng/ml LPS in the Presence of Increasing Concentrations of Compound 7 (0.03-10 μM) for 24 Hour.
Whole blood samples were collected from patients with MWS and cultured in vitro. The production of IL-1β was evaluated under normal, unstimulated conditions and in the presence of lipopolysaccharide at a range of concentrations from 10-10,000 ng/mL. Compound 7 was added to the cultures at concentrations of 30-10,000 nM to observe its ability to inhibit the production of IL-1β by cells from patients with MWS or healthy volunteers. FIG. 2 illustrates the results of these experiments.
More specifically, in FIG. 2, IL-1β in cell culture media was measured by ELISA and the results for each subject were normalized to the level of IL-1β release in the absence of compound 7. Results were reported individually for each of the 4 MWS patients.

[3] = system: LPS-stimulated IL-1β release from PBMCs from normal subjects; experiment: LPS-stimulated IL-1β release from PBMCs of healthy controls; format: cell-based; conditions: Homo sapiens, PBMC, 10 ng/ml LPS, 24 hours, compound 0.03-30 μM, ELISA, FIG. 1A, read-out: IC50 for inhibition of LPS-stimulated IL-1β release
Protocol: as §1, §3
(§4) More specifically, in FIG. 1A, PBMCs from FCAS patients and normal controls were incubated with 10 ng/ml LPS in the presence of increasing concentrations of compound 7 (0.03-30 μM) for 24 hours. IL-1β in cell culture media was measured by ELISA and the results for each subject were normalized to the level of IL-1β release in the absence of compound 7. Results were reported in mean±SEM, for 3 FCAS patients and 5 control patients. LPS-stimulated IL-1β was inhibited by compound 7 with potency very similar to that of PBMCs from normal subjects (IC50 value˜1 μM).

MWS patients = experiment: Open-label clinical trial: clinical response of 4 MWS patients to compound 7; format: in vivo, human
Protocol: Clinical Response of 4 MWS Patients to 900 mg Compound 7 Administered Orally Three Times Daily for 14 Days.
Four patients with MWS were enrolled into an open-label clinical trial to receive treatment with compound 7.
Compound 7 was administered orally at a dose of 900 mg 3 times daily for 14 days.
Specifically, in FIG. 3A, serum interleukin-18 (IL-18) was measured before (day −9 and day 0 (first point)), during (day 0 (second point), day 7 and day 14, (first point)) and after (day 14 (second point) and day 21) treatment with compound 7. On average, serum IL-18 levels were reduced by 55% at day 14. Data were reported in mean±SEM from 4 patients. Baseline levels of serum IL-18 were 170-370 pg /mL and were only slightly elevated relative to those typically observed in healthy control subjects.
In FIG. 3B, Serum amyloid A (SAA) and C-reactive protein (CRP) were measured before, during and after treatment with compound 7, and the amounts of SAA and CRP were reduced on average by 75% and 65%, respectively. Baseline levels of SAA were 150-650 mg/L and of CRP were 20-90 mg/L, both considerably elevated relative to healthy control subjects.
FIG. 3C illustrates that the self-reported patient total symptom scores were reduced on average by 60% during treatment. Individual symptoms (rash, fever/chills, arthralgia/myalgia, eye discomfort, fatigue) were rated daily by patients to be absent (O), minimal (1), mild (2), moderate (3) or severe (4) and the total score was calculated as the sum of individual symptom scores (range 0-20). Patients were experiencing mild-moderate symptoms at the beginning of treatment (scores 10-15), which were reduced to a minimal level (scores about 5) during treatment with compound 7.

[4] = system: LPS-stimulated IL-1β release from PBMCs of FCAS patients; experiment: LPS-stimulated IL-1β release from PBMCs of patients with FCAS; format: cell-based, human
Source text: as §1, §2, §3, §4
FIG. 1B illustrates the release of IL-1β by PBMCs from FCAS patients or control subjects after exposure to LPS for 24 hours in the absence or presence of 10 μM compound 7. Results were reported in mean±SEM for 7 FCAS patients and 5 control patients. […]

patients with MWS = conditions: cited from earlier work
[5] = 900 mg orally three times daily for 14 days, MWS patients, FIG. 3B

Q: Which results are given for CCO[C@@H]1OC(=O)C[C@@H]1NC(=O)[C@@H]1CCCN1C(=O)[C@@H](NC(=O)c1ccc(N)c(Cl)c1)C(C)(C)C [Compound 7]?
A: LPS-stimulated IL-18 release in presence of compound ([1]; 10 μM compound, LPS 24 hrs, PBMCs from 3 FCAS patients vs 3 controls, FIG. 1C): inhibited; Potency of blocking IL-18 secretion, FCAS versus control subjects ([1]; LPS-stimulated cells, FIG. 1): equal potency; Inhibition of LPS-stimulated IL-1β release, potency versus normal subjects [2]: potency similar to that of PBMCs from normal subjects; IC50 [3]: ~1000 nM; Reduction of C-reactive protein (CRP) (average) (MWS patients; [5]): 65%; Reduction of serum amyloid A (SAA) (average) (MWS patients; [5]): 75%; Reduction of serum interleukin-18 (average) (MWS patients; 900 mg orally three times daily, at day 14, 4 MWS patients, FIG. 3A): 55%; Reduction of self-reported patient total symptom scores (average) (MWS patients; 900 mg orally three times daily, during treatment, MWS patients, FIG. 3C): 60%; Tolerability (MWS patients; four MWS patients, 14-day treatment period, 900 mg 3 times daily orally): well tolerated; Total symptom score during treatment (MWS patients; sum of 5 symptom scores, range 0-20, scores 10-15 at beginning of treatment): about 5; LPS-stimulated IL-1β release in presence of compound ([4]; 10 μM compound, LPS 24 hours, PBMCs from 7 FCAS patients vs 5 controls, FIG. 1B): inhibited; IC50 ([4]; Homo sapiens, PBMC, PBMCs from FCAS patients, 10 ng/ml LPS, 24 hours, compound 0.03-30 μM, ELISA, FIG. 1A, read-out: IC50 for inhibition of LPS-stimulated IL-1β release): ~1000 nM; Potency of blocking IL-1β secretion, FCAS versus control subjects ([4]; LPS-stimulated cells, FIG. 1): equal potency

Q: What does the source list for “anakinra: recombinant human interleukin-1 receptor antagonist (rhuIL-1Ra, anakinra)”?
A: Clinical inflammatory symptoms in patients with MWS (patients with MWS; daily injection): dramatic, rapid and sustained reduction; Serum amyloid A in patients with MWS (patients with MWS; daily injection): reduction of serum amyloid A; Urinary excretion of amyloid in patients with MWS (patients with MWS; daily injection): reduction; Effectiveness in treating Muckle-Wells syndrome, Familial Cold Autoinflammatory Syndrome, Hyper-IgD syndrome and systemic onset Juvenile idiopathic Arthritis (patients with MWS; human, in vivo): effective
